# Values of other authors in PubChem BioAssay AID1259409 (Chemical Carcinogenesis Research Information System (CCRIS), 2018).
# Tested on: rodent chemically induced tumor inhibition, incidence and multiplicity
# Assay: CCRIS tumor inhibitor studies
# Details: Route [Inhibitor]: ORAL, Species: RAT
smiles,measurement,setting,value
COc1cc(/C=C/C(=O)O[C@H]2CC[C@]34C[C@]35CC[C@]3(C)[C@@H]([C@H](C)CCC=C(C)C)CC[C@@]3(C)[C@@H]5CC[C@H]4C2(C)C)ccc1O,"tumour outcome (control, treated, inhibition, significance)","Carcinogen: 3,2'-DIMETHYL-4-AMINOBIPHENYL, 13394-86-0, Dose [Inhibitor]: 0, 2% IN BASAL DIET BEGINNING POST CARCINOGEN TREATMENT AND CONTINUING FOR 40 WK (STUDY DURATION: 60 WK), Strain/Sex: F344/MALE, Target Tissue: Type of Lesion: SMALL INTESTINE: ADENOMA AND ADENOCARCINOMA, Dose [Carcinogen]: 50 MG/KG 1/2 WK FOR 20 WK TO RATS MAINTAINED ON ETHINYL ESTRADIOL CONTAINING DIET (0.75 PPM) FOR 1 WK CYCLED WITH ETHINY, Promoter: ETHINYL ESTRADIOL, 57-63-6","2/10 (20%), 3/13 (23%), -15%, not significant"
same,"tumour outcome (control, treated, inhibition, significance)","Carcinogen: 3,2'-DIMETHYL-4-AMINOBIPHENYL, 13394-86-0, Dose [Inhibitor]: 0, 2% IN BASAL DIET BEGINNING POST CARCINOGEN TREATMENT AND CONTINUING FOR 40 WK (STUDY DURATION: 60 WK), Strain/Sex: F344/MALE, Target Tissue: Type of Lesion: SUBCUTIS: TUMOR, Dose [Carcinogen]: 50 MG/KG 1/2 WK FOR 20 WK TO RATS MAINTAINED ON ETHINYL ESTRADIOL CONTAINING DIET (0.75 PPM) FOR 1 WK CYCLED WITH ETHINY, Promoter: ETHINYL ESTRADIOL, 57-63-6","1/10 (10%), 0/13 (0%), 100%, not significant"
same,"tumour outcome (control, treated, inhibition, significance)","Carcinogen: 3,2-DIMETHYL-4-AMINOBIPHENYL, 13394-86-0, Dose [Inhibitor]: 0, 2% IN BASAL DIET BEGINNING POST CARCINOGEN TREATMENT AND CONTINUING FOR 40 WK (STUDY DURATION: 60 WK), Strain/Sex: F344/MALE, Target Tissue: Type of Lesion: PREPUTIAL GLAND: ADENOMA AND CARCINOMA, Dose [Carcinogen]: 50 MG/KG 1/2 WK FOR 20 WK TO RATS MAINTAINED ON ETHINYL ESTRADIOL CONTAINING DIET (0.75 PPM) FOR 1 WK CYCLED WITH ETHINY, Promoter: ETHINYL ESTRADIOL, 57-63-6","5/10 (50%), 8/13 (62%), -24%, not significant"
same,"tumour outcome (control, treated, inhibition, significance)","Carcinogen: 3,2-DIMETHYL-4-AMINOBIPHENYL, 13394-86-0, Dose [Inhibitor]: 0, 2% IN BASAL DIET BEGINNING POST CARCINOGEN TREATMENT AND CONTINUING FOR 40 WK (STUDY DURATION: 60 WK), Strain/Sex: F344/MALE, Target Tissue: Type of Lesion: ZYMBAL GLAND: ADENOMA AND CARCINOMA, Dose [Carcinogen]: 50 MG/KG 1/2 WK FOR 20 WK TO RATS MAINTAINED ON ETHINYL ESTRADIOL CONTAINING DIET (0.75 PPM) FOR 1 WK CYCLED WITH ETHINY, Promoter: ETHINYL ESTRADIOL, 57-63-6","2/10 (20%), 0/13 (0%), 100%, not significant"
same,"tumour outcome (control, treated, inhibition, significance)","Carcinogen: 3,2-DIMETHYL-4-AMINOBIPHENYL, 13394-86-0, Dose [Inhibitor]: 0, 200% PPM IN BASAL DIET BEGINNING POST CARCINOGEN TREATMENT AND CONTINUING FOR 40 WK (STUDY DURATION: 60 WK), Strain/Sex: F344/MALE, Target Tissue: Type of Lesion: LARGE INTESTINE: ADENOMA AND ADENOCARCINOMA, Dose [Carcinogen]: 50 MG/KG 1/2 WK FOR 20 WK TO RATS MAINTAINED ON ETHINYL ESTRADIOL CONTAINING DIET (0.75 PPM) FOR 1 WK CYCLED WITH ETHINY, Promoter: ETHINYL ESTRADIOL, 57-63-6","3/10 (30%), 3/13 (23%), 23%, not significant"
same,"tumour outcome (control, treated, inhibition, significance)","Carcinogen: 7,12-DIMETHYLBENZ[A]ANTHRACENE [57-97-6], Dose [Inhibitor]: 1% IN DIET FOR 35 WK BEGINNING 1 WK POST LAST CARCINOGEN DOSE (STUDY DURATION: 36 WK), Strain/Sex: SPRAGUE-DAWLEY/FEMALE, Target Tissue: Type of Lesion: MAMMARY GLAND: CARCINOMA, Dose [Carcinogen]: 50 MG/KG BW ONCE (STUDY DURATION: 36 WK), Promoter: NONE","14/15 (93%), 15/16 (94%), -1%, not significant"
same,"tumour outcome (control, treated, inhibition, significance)","Carcinogen: 7,12-DIMETHYLBENZ[A]ANTHRACENE [57-97-6], Dose [Inhibitor]: 1% IN DIET FOR 35 WK BEGINNING 1 WK POST LAST CARCINOGEN DOSE (STUDY DURATION: 36 WK), Strain/Sex: SPRAGUE-DAWLEY/FEMALE, Target Tissue: Type of Lesion: MAMMARY GLAND: FIBROADENOMA, Dose [Carcinogen]: 50 MG/KG BW ONCE (STUDY DURATION: 36 WK), Promoter: NONE","3/15 (20%), 2/16 (13%), 35%, not significant"
same,"tumour outcome (control, treated, inhibition, significance)","Carcinogen: 7,12-DIMETHYLBENZ[A]ANTHRACENE, 57-97-6, Dose [Inhibitor]: 0, 1% IN DIET FOR 35 WK BEGINNING POST CARCINOGEN DOSE (STUDY DURATION: 36 WK), Strain/Sex: SPRAGUE-DAWLEY/FEMALE, Target Tissue: Type of Lesion: EAR DUCT: TUMOR, Dose [Carcinogen]: 50 MG/KG BW IN CORN OIL ONCE, Promoter: NONE USED","5/15 (33%), 7/16 (44%), -33%, not significant"
same,"tumour outcome (control, treated, inhibition, significance)","Carcinogen: 7,12-DIMETHYLBENZ[A]ANTHRACENE, 57-97-6, Dose [Inhibitor]: 0, 1% IN DIET FOR 35 WK BEGINNING POST CARCINOGEN DOSE (STUDY DURATION: 36 WK), Strain/Sex: SPRAGUE-DAWLEY/FEMALE, Target Tissue: Type of Lesion: MAMMARY GLAND: ADENOCARCINOMA, Dose [Carcinogen]: 50 MG/KG BW IN CORN OIL ONCE, Promoter: NONE USED","14/15 (93%), 15/16 (94%), -1%, not significant"
same,"tumour outcome (control, treated, inhibition, significance)","Carcinogen: 7,12-DIMETHYLBENZ[A]ANTHRACENE, 57-97-6, Dose [Inhibitor]: 0, 1% IN DIET FOR 35 WK BEGINNING POST CARCINOGEN DOSE (STUDY DURATION: 36 WK), Strain/Sex: SPRAGUE-DAWLEY/FEMALE, Target Tissue: Type of Lesion: MAMMARY GLAND: FIBROADENOMA, Dose [Carcinogen]: 50 MG/KG BW IN CORN OIL ONCE, Promoter: NONE USED","3/15 (20%), 2/16 (13%), 35%, not significant"
